From patent publication EP0440324B1, “Substituted beta-diketones and their use in the treatment of inflammatory bowel disease” (ORION-YHTYMÄ OY, priority 1990, dated 1991)

Tested on: TNB-induced chronic colitis
Assay: TNB-induced chronic colitis in the rat (damage score of the colon)
Format: in vivo, Wistar rats
Conditions: damage score of chronic inflammation induced by TNB, colons scored 96 h after TNB
Experimental: 20 mg of TNB (2,4,6-trinitrobenzenesulfonic acid) in 50 % ethanol was administered into the lumen of the colon via a rubber catheter inserted rectally to Wistar rats. The test compounds were given rectally 1 h prior and 24, 48, 72 and 95 h after TNB. The rats were sacrificed 96 h after TNB and their colons were scored according to occurence of ulcers and inflammation. The number of animals in each group was at least 8. 5-ASA (5-aminosalicylic acid), a clinically used drug for the treatment of IBD was used as a reference compound.

[1] = dose 30 mg/kg rectally 1 h prior and 24, 48, 72 and 95 h after TNB

Molecule | % inhibition against control [1] | other results
CC(=O)C(=Cc1ccc(C(=O)NCCc2ccccc2)cc1)C(C)=O [Test compound 9, 3-[(4-(N-phenethyl)carboxamido-phenyl)methylene]-2,4-pentanedione] | – | inhibition in vivo at 10 mg/kg (Rattus norvegicus, dose 10 mg/kg rectally 1 h prior and 24, 48, 72 and 95 h after TNB, read-out: % inhibition against control): 60%; inhibition in vivo at 30 mg/kg (Rattus norvegicus, dose 30 mg/kg rectally 1 h prior and 24, 48, 72 and 95 h after TNB, read-out: % inhibition against control): 48%
3-[3-(4-Methoxyphenyl)propenylene]-2,4-pentanedione [Example 11] | 32% | –
3-[(3,5-Dinitro-4-hydroxyphenyl)methylene]-2,4-pentanedione. [Example 9] | 40% | –
Nc1ccc(O)c(C(=O)O)c1 [5-ASA, 5-aminosalicylic acid, reference compound] | – | inhibition in vivo at 100 mg/kg (Rattus norvegicus, dose 100 mg/kg rectally 1 h prior and 24, 48, 72 and 95 h after TNB, read-out: % inhibition against control): 24%
3-[(5-Nitrothienyl)methylene]-2,4-pentanedione [Example 13] | 58% | –
